Experiments:
[1] = system: human epidermal keratinocytes (HEK); experiment: Inhibition of human epidermal keratinocyte proliferation (AlamarBlue reduction); format: cell-based; settings: two typical experiments (FIG. 1), 0.1 to 100 microM adenosine, 2 days incubation, AlamarBlue fluorescence
Excerpt: Cryopreserved human epidermal keratinocytes (HEK) isolated from skin were obtained from TCS Cellworks, Botolph Claydon, Buckingham, MK18 2LR, UK. Cells were maintained in EpiLife, a defined basal medium designed for human keratinocytes supplemented with selected hormones and growth factors (TCS Cellworks). […] Proliferating cultures were trypsinised, harvested, treated with a trypsin inhibitor and resuspended in growth medium. The viable cells were counted then replated into 24 or 96 well cell culture plates at a density of approximately 2,500 cells/cm2. Cells were incubated overnight at 37° C. at 5% CO2 to allow recovery, the spent medium aspirated from the wells and replaced with fresh growth medium in the presence or absence of adenosine. Adenosine was obtained from Sigma-Aldrich and made up as a 10 mM stock solution in DMSO. Serial dilutions were made in the growth medium and added to the cells to give final concentrations ranging from 0.1 to 100 microM, and the cells returned to the incubator for 2 days. AlamarBlue 2% v/v was added to the wells and reduction measured fluorometrically using a Molecular Dynamics BioLumin 9600 microtitre plate reader using excitation wavelength at 530 nm and […] wavelength at 590 nm. Control experiments in which compounds were not added were carried out to examine the normal time-scale of proliferation. […]

[2] = cited from earlier work

In the case of `Nc1ncnc2c1ncn2[C@@H]1O[C@H](CO)[C@@H](O)[C@H]1O` [Adenosine], the EC50 ([1]; Homo sapiens, Keratinocyte, 48 h) is given as 1700 nM, the EC50 [1] is given as 1100 nM and the “half-life in the circulation” value [2] is given as less than 10 s.

— patent US20090068125A1, “TREATMENT FOR MUCOSITIS” (HEPTAGEN LTD, priority 2005, published 2009)
